From patent US20080175794A1, “Substituted Pyridazinyl- and Pyrimidinyl-Quinolin-4-Ylamine Analogues” (NEUROGEN CORPORATION, priority 2005, published 2008)

Tests used:
human capsaicin receptor = biological target: T1, human capsaicin receptor (Homo sapiens, UniProt Q8NER1); test: Calcium mobilization assay, determination of antagonist activity (Example 6); assay type: cell-based; settings: Table III; assay provided in Example 6; cells expressing human capsaicin receptor, capsaicin at EC50
T1 construct: expressed in transfected cells
In short: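 Stable HEK293 clones expressing full-length human capsaicin receptor, loaded with Fluo-3 AM in KRH buffer pH 7.4 (1–2 h, 37 °C). Test compound (1–5 μM final) preincubated 0.5–6 h at room temperature in the dark, then capsaicin added at its EC50. FLIPR/Fluoroskan calcium signal; IC50 as concentration halving the capsaicin response.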

VR = VR (Homo sapiens, UniProt Q8NER1); settings: typical value, non-selective cation channel blocker binding to VR; cited from earlier work
Sequence of VR (Q8NER1 whole entry): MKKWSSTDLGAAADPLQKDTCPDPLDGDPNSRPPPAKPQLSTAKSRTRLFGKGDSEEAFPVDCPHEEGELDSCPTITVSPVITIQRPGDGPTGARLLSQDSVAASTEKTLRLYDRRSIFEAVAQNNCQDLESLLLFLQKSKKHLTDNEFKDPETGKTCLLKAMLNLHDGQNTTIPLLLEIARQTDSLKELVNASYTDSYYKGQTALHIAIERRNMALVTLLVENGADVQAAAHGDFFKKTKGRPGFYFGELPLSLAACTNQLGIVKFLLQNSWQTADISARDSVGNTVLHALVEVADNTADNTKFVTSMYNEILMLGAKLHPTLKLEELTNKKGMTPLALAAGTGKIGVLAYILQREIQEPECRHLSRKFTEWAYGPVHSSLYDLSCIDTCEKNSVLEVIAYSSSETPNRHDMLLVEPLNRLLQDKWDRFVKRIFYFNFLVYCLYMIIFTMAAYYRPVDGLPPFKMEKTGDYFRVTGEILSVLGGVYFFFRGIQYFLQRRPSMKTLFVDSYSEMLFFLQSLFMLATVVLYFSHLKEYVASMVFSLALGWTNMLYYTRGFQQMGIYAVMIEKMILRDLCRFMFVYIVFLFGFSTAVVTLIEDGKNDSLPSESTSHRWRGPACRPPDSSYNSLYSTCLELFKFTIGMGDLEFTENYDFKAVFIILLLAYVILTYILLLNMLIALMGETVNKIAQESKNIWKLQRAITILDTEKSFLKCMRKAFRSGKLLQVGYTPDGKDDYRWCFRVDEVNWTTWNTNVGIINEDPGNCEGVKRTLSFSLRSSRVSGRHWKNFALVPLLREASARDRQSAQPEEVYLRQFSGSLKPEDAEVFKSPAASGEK

T1 sequence (Q8NER1 whole entry): as above

| SMILES | IC50 (human capsaicin receptor) [µM] | Ki (VR) [µM] |
| --- | --- | --- |
| CCN(C)c1cc(C(F)(F)F)c(-c2cnc3c(Nc4ccc(C(F)(F)F)cn4)ccnc3n2)nn1 [Compound 180, 3-{6-[ethyl(methyl)amino]-4-(trifluoromethyl)pyridazin-3-yl}-N-[5-(trifluoromethyl)pyridin-2-yl]pyrido[2,3-b]pyrazin-8-amine] | < 1 | – |
| COCCN(C)c1cc(C(F)(F)F)c(-c2cnc3c(Nc4ccc(C(F)(F)F)cn4)ccnc3n2)nn1 [Compound 181, 3-{6-[(2-methoxyethyl)(methyl)amino]-4-(trifluoromethyl)pyridazin-3-yl}-N-[5-(trifluoromethyl)pyridin-2-yl]pyrido[2,3-b]pyrazin-8-amine] | < 1 | – |
| CC(C)N(C)c1cc(C(F)(F)F)c(-c2cnc3c(Nc4ccc(C(F)(F)F)cn4)ccnc3n2)nn1 [Compound 185, 3-{6-[isopropyl(methyl)amino]-4-(trifluoromethyl)pyridazin-3-yl}-N-[5-(trifluoromethyl)pyridin-2-yl]pyrido[2,3-b]pyrazin-8-amine] | < 1 | – |
| CCOC(=O)CN(C)c1cc(C(F)(F)F)c(-c2cnc3c(Nc4ccc(C(F)(F)F)cn4)ccnc3n2)nn1 [Compound 187, ethyl N-methyl-N-[5-(trifluoromethyl)-6-(8-{[5-(trifluoromethyl)pyridin-2-yl]amino}pyrido[2,3-b]pyrazin-3-yl)pyridazin-3-yl]glycinate] | < 1 | – |
| COC1CCN(c2cc(C(F)(F)F)c(-c3cnc4c(Nc5ccc(C(F)(F)F)cn5)ccnc4n3)nn2)CC1 [Compound 188, 3-[6-(4-methoxypiperidin-1-yl)-4-(trifluoromethyl)pyridazin-3-yl]-N-[5-(trifluoromethyl)pyridin-2-yl]pyrido[2,3-b]pyrazin-8-amine] | < 1 | – |
| CC1CCN1c1cc(C(F)(F)F)c(-c2cnc3c(Nc4ccc(C(F)(F)F)cn4)ccnc3n2)nn1 (stereo not drawn) [Compound 189, 3-[6-(2-methylazetidin-1-yl)-4-(trifluoromethyl)pyridazin-3-yl]-N-[5-(trifluoromethyl)pyridin-2-yl]pyrido[2,3-b]pyrazin-8-amine] | < 1 | – |
| O[C@H]1CCN(c2cc(C(F)(F)F)c(-c3cnc4c(Nc5ccc(C(F)(F)F)cn5)ccnc4n3)nn2)C1 [Compound 193] | < 1 | – |
| CCN(CCO)c1cc(C(F)(F)F)c(-c2cnc3c(Nc4ccc(C(F)(F)F)cn4)ccnc3n2)nn1 [Compound 194] | < 1 | – |
| OC1CCCN(c2cc(C(F)(F)F)c(-c3cnc4c(Nc5ccc(C(F)(F)F)cn5)ccnc4n3)nn2)C1 (stereo not drawn) [Compound 195, 1-[5-(trifluoromethyl)-6-(8-{[5-(trifluoromethyl)pyridin-2-yl]amino}pyrido[2,3-b]pyrazin-3-yl)pyridazin-3-yl]piperidin-3-ol] | < 1 | – |
| OC1CCN(c2cc(C(F)(F)F)c(-c3cnc4c(Nc5ccc(C(F)(F)F)cn5)ccnc4n3)nn2)CC1 [Compound 196, 1-[5-(trifluoromethyl)-6-(8-{[5-(trifluoromethyl)pyridin-2-yl]amino}pyrido[2,3-b]pyrazin-3-yl)pyridazin-3-yl]piperidin-4-ol] | < 1 | – |
| CC(C)N(CCO)c1cc(C(F)(F)F)c(-c2cnc3c(Nc4ccc(C(F)(F)F)cn4)ccnc3n2)nn1 [Compound 197, 2-{isopropyl[5-(trifluoromethyl)-6-(8-{[5-(trifluoromethyl)pyridin-2-yl]amino}pyrido[2,3-b]pyrazin-3-yl)pyridazin-3-yl]amino}ethanol] | < 1 | – |
| Cl.Cl.Cl.Cl.Cl.Cl.N.N.N.N.N.N.N.N.N.N.N.N.N.N.[O-2].[O-2].[Ru+3].[Ru+3].[Ru+4] [ruthenium red] | – | ≥ 140 |
